≈ marks a conversion by molar mass, not a printed value.

Assay [1] relates to Plasmodium falciparum. The assay is described as follows: Antimalarial activity against mefloquine-resistant Plasmodium falciparum D6 (Sierra Leone) after 24 to 60 hrs by [G-H3]hypoxanthine uptake. The class given is functional, organism-based.
The test system of assay [2] is Plasmodium falciparum. The assay is described as follows: Antimalarial activity against chloroquine-resistant Plasmodium falciparum Indochina W2 after 24 to 60 hrs by [G-H3]hypoxanthine uptake. The assay is classed as functional, organism-based.

The compound `C[C@@H]1CC[C@H]2[C@@H](C)C(=O)O[C@@H]3O[C@@]4(C)CC[C@@H]1[C@]32OO4` [ARTEMISININ] had an IC50 in assay [1] of 2.1 ng/mL (≈ 7.44 nM).

As for `CC(C)=CC(=O)O[C@H]1C(=O)O[C@@H]2C[C@H]3C(C)=CC(=O)[C@@H](O)[C@]3(C)[C@H]3[C@@H](O)[C@H](O)[C@]4(C)OC[C@]32[C@@H]14` [GUTOLACTONE], the IC50 in assay [2] is 4 ng/mL (≈ 8.39 nM); in assay [1], 4.1 ng/mL (≈ 8.6 nM). `OC(c1cc(C(F)(F)F)nc2c(C(F)(F)F)cccc12)C1CCCCN1` (configuration not stated) [MEFLOQUINE] returned an IC50 in assay [2] of 1.5 ng/mL (≈ 3.96 nM).

Consider `C=C[C@H]1CN2CC[C@H]1C[C@H]2[C@H](O)c1ccnc2ccc(OC)cc12` [QUININE], for which the IC50 in assay [2] came out at 68.6 ng/mL (≈ 211 nM). Turning to `CC[C@@H](C)C(=O)O[C@H]1C(=O)O[C@@H]2C[C@H]3C(C)=CC(=O)[C@@H](O)[C@]3(C)[C@H]3[C@@H](O)[C@H](O)[C@]4(C)OC[C@]32[C@@H]14` [SIMALIKALACTONE D], the half-maximal inhibitory concentration (IC50) in assay [2] stood at 1.6 ng/mL (≈ 3.34 nM); in assay [1], 1.5 ng/mL (≈ 3.13 nM).

What is called IC50 is the point on the concentration scale where inhibition reaches its midpoint. High values mean weaker potency, low ones greater potency.

The values are drawn from ChEMBL document CHEMBL1147396, “A new antimalarial quassinoid from Simaba guianensis” (J Nat Prod, 1993).
